Results on five compounds are retold here after patent US10722587B2, “Composition for intracellular delivery containing adenovirus protein VI-derived peptide and anticancer pharmaceutical composition containing same” (priority 2015, dated 2020).

Each structure is given as a SMILES string.

For this data set, the system named is Hela cell line. As to the kind of experiment: MTT assay, oncolytic capability and cytotoxicity. It counts as cell-based, human. Conditions: 4 days. The protocol:
In this example, to confirm the adenoviral proliferation capability and oncolytic capability of Ad pDNA-polymer-peptide complexes, a complex was manufactured using polymer PAM-ABP and d pDNA containing viral DNA of H-Rd19-k35/DCN/shcMet, which is a tumor-selective oncolytic adenovirus expressing adenovirus DNA such as decorin (DCN) and shcMet. A human uterine cancer cell line, Hela cell line, was inoculated into a 12-well plate, and after 24 hours, treated with naked Ad pDNA, Ad pDNA/PAM-ABP, Ad pDNA/PAM-ABP/peptide complexes in which 6 types of peptides such as mVI, mVI-TAT, mVI-TAT-A, mVI-G-TAT-A, mVI-A-TAT and mVI-G-A-TAT were conjugated with Ad pDNA/PAM-ABP, and controls such as VI-9R and a complex with a TAT peptide. In addition, to verify cytotoxicity, the cells were treated with PAM-ABP or a peptide alone. Four days after the treatment, the culture solution was collected, and the number of adenovirus particles was detected using Q-PCR, and to verify oncolytic capability, 2 mg/ml of 3-(4,5-dimethylthiazol-2-yl)-2,5-diphenyl-tetrazolium bromide (MTT; Sigma Aldrich) in PBS was added at 200 μL to each well of the supernatant-removed plate, and cultured at 37° C. for 4 hours. Afterward, the supernatant was removed, the precipitate was dissolved in 1.0 ml dimethyl sulfoxide, the absorbance was analyzed by reading the plate at 540 nm on a microplate reader, and a non-treated cell group was classified as a negative control.
For the compound `CC[C@H](C)[C@H](NC(=O)CNC(=O)[C@H](CO)NC(=O)[C@H](Cc1c[nH]c2ccccc12)NC(=O)[C@H](CC(C)C)NC(=O)[C@H](CO)NC(=O)CNC(=O)[C@H](Cc1c[nH]c2ccccc12)NC(=O)[C@H](CO)NC(=O)[C@H](Cc1ccccc1)NC(=O)[C@H](C)N)C(=O)N[C@@H](CCCCN)C(=O)N[C@@H](CC(N)=O)C(=O)N[C@@H](Cc1ccccc1)C(=O)NCC(=O)N[C@@H](Cc1ccccc1)C(=O)N[C@@H](CC(C)C)C(=O)NCC(=O)N[C@@H](C)C(=O)N[C@@H](CC(C)C)C(=O)N[C@@H](C)C(=O)N[C@@H](CCC(=O)O)C(=O)N[C@@H](CCCNC(=N)N)C(=O)N[C@@H](CCCCN)C(=O)N[C@@H](CCCCN)C(=O)N[C@@H](CCCNC(=N)N)C(=O)N[C@@H](CCCNC(=N)N)C(=O)N[C@@H](CCC(N)=O)C(=O)N[C@@H](CCCNC(=N)N)C(=O)N[C@@H](CCCNC(=N)N)C(=O)N[C@@H](CCCNC(=N)N)C(=O)O` [mVI-G-A-TAT], the “cytotoxicity of peptide alone” value is “relatively high cytotoxicity”.

Take `CC[C@H](C)[C@H](NC(=O)CNC(=O)[C@H](CO)NC(=O)[C@H](Cc1c[nH]c2ccccc12)NC(=O)[C@H](CC(C)C)NC(=O)[C@H](CO)NC(=O)CNC(=O)[C@H](Cc1c[nH]c2ccccc12)NC(=O)[C@H](CO)NC(=O)[C@H](Cc1ccccc1)NC(=O)[C@H](C)N)C(=O)N[C@@H](CCCCN)C(=O)N[C@@H](CC(N)=O)C(=O)N[C@@H](Cc1ccccc1)C(=O)NCC(=O)O` [mVI]: the “cytotoxicity of peptide alone” value is listed as “relatively high cytotoxicity”.

Regarding `CC[C@H](C)[C@H](NC(=O)CNC(=O)[C@H](CO)NC(=O)[C@H](Cc1c[nH]c2ccccc12)NC(=O)[C@H](CC(C)C)NC(=O)[C@H](CO)NC(=O)CNC(=O)[C@H](Cc1c[nH]c2ccccc12)NC(=O)[C@H](CO)NC(=O)[C@H](Cc1ccccc1)NC(=O)[C@H](C)N)C(=O)N[C@@H](CCCCN)C(=O)N[C@@H](CC(N)=O)C(=O)N[C@@H](Cc1ccccc1)C(=O)NCC(=O)N[C@@H](C)C(=O)N[C@@H](CC(C)C)C(=O)N[C@@H](C)C(=O)N[C@@H](CCC(=O)O)C(=O)N[C@@H](CCCNC(=N)N)C(=O)N[C@@H](CCCCN)C(=O)N[C@@H](CCCCN)C(=O)N[C@@H](CCCNC(=N)N)C(=O)N[C@@H](CCCNC(=N)N)C(=O)N[C@@H](CCC(N)=O)C(=O)N[C@@H](CCCNC(=N)N)C(=O)N[C@@H](CCCNC(=N)N)C(=O)N[C@@H](CCCNC(=N)N)C(=O)O` [mVI-A-TAT], the “cytotoxicity of peptide alone” value is “relatively high cytotoxicity”.

As to `CC[C@H](C)[C@H](NC(=O)CNC(=O)[C@H](CO)NC(=O)[C@H](Cc1c[nH]c2ccccc12)NC(=O)[C@H](CC(C)C)NC(=O)[C@H](CO)NC(=O)CNC(=O)[C@H](Cc1c[nH]c2ccccc12)NC(=O)[C@@H](N)CO)C(=O)N[C@@H](CCCCN)C(=O)N[C@@H](CC(N)=O)C(=O)N[C@@H](Cc1ccccc1)C(=O)NCC(=O)N[C@@H](CCCNC(=N)N)C(=O)N[C@@H](CCCNC(=N)N)C(=O)N[C@@H](CCCNC(=N)N)C(=O)N[C@@H](CCCNC(=N)N)C(=O)N[C@@H](CCCNC(=N)N)C(=O)N[C@@H](CCCNC(=N)N)C(=O)N[C@@H](CCCNC(=N)N)C(=O)N[C@@H](CCCNC(=N)N)C(=O)N[C@@H](CCCNC(=N)N)C(=O)O` [VI-9R], the “cytotoxicity of peptide alone” value is listed as “high cytotoxicity”.

In the case of `CC[C@H](C)[C@H](NC(=O)CNC(=O)[C@H](CO)NC(=O)[C@H](Cc1c[nH]c2ccccc12)NC(=O)[C@H](CC(C)C)NC(=O)[C@H](CO)NC(=O)CNC(=O)[C@H](Cc1c[nH]c2ccccc12)NC(=O)[C@H](CO)NC(=O)[C@H](Cc1ccccc1)NC(=O)[C@H](C)N)C(=O)N[C@@H](CCCCN)C(=O)N[C@@H](CC(N)=O)C(=O)N[C@@H](Cc1ccccc1)C(=O)NCC(=O)N[C@@H](Cc1ccccc1)C(=O)N[C@@H](CC(C)C)C(=O)NCC(=O)N[C@@H](CCCNC(=N)N)C(=O)N[C@@H](CCCCN)C(=O)N[C@@H](CCCCN)C(=O)N[C@@H](CCCNC(=N)N)C(=O)N[C@@H](CCCNC(=N)N)C(=O)N[C@@H](CCC(N)=O)C(=O)N[C@@H](CCCNC(=N)N)C(=O)N[C@@H](CCCNC(=N)N)C(=O)N[C@@H](CCCNC(=N)N)C(=O)N[C@@H](C)C(=O)N[C@@H](CC(C)C)C(=O)N[C@@H](C)C(=O)N[C@@H](CCC(=O)O)C(=O)O` [mVI-G-TAT-A], the “cytotoxicity of peptide alone” value is recorded as “relatively high cytotoxicity”.
